Measured values as given in ChEMBL document CHEMBL5352456, “Isocyanides in med chem: A scaffold hopping approach for the identification of novel 4-isocyanophenylamides as potent antibacterial agents against methicillin-resistant Staphylococcusaureus” (Eur J Med Chem, 2023).

How the values were obtained:
Format in all cases: functional
Conditions in all cases: time 16-20 hrs
Staphylococcus aureus [1] = experiment: Antibacterial activity against Staphylococcus aureus ATCC 6538 assessed as reduction in microbial growth measured for 16 to 20 hrs by microdilution assay
Staphylococcus aureus [2] = experiment: Antibacterial activity against Staphylococcus aureus ATCC 25923 assessed as reduction in microbial growth measured for 16 to 20 hrs by microdilution assay
Staphylococcus aureus [3] = experiment: Antibacterial activity against Staphylococcus aureus ATCC 29213 assessed as reduction in microbial growth measured for 16 to 20 hrs by microdilution assay
Klebsiella pneumoniae = experiment: Antibacterial activity against Klebsiella pneumoniae ATCC 700603 assessed as inhibition of bacterial growth measured for 16 to 20 hrs by microdilution assay
Pseudomonas aeruginosa = experiment: Antibacterial activity against Pseudomonas aeruginosa ATCC 10145 assessed as inhibition of bacterial growth measured for 16 to 20 hrs by microdilution assay
Escherichia coli = experiment: Antibacterial activity against Escherichia coli ATCC 25922 assessed as inhibition of bacterial growth measured for 16 to 20 hrs by microdilution assay
Staphylococcus aureus [4] = experiment: Antibacterial activity against methicillin-resistant Staphylococcus aureus ATCC 43300 assessed as reduction in microbial growth measured for 16 to 20 hrs by microdilution assay
Staphylococcus aureus [5] = experiment: Antibacterial activity against methicillin-resistant Staphylococcus aureus ATCC 33592 assessed as reduction in microbial growth measured for 16 to 20 hrs by microdilution assay
[6] = test system: Staphylococcus epidermidis; experiment: Antibacterial activity against Staphylococcus epidermidis ATCC 35984 assessed as reduction in microbial growth measured for 16 to 20 hrs by microdilution assay
[7] = test system: Staphylococcus epidermidis; experiment: Antibacterial activity against Staphylococcus epidermidis ATCC 12228 assessed as reduction in microbial growth measured for 16 to 20 hrs by microdilution assay
[8] = test system: Staphylococcus epidermidis; experiment: Antibacterial activity against Staphylococcus epidermidis ATCC 49134 assessed as reduction in microbial growth measured for 16 to 20 hrs by microdilution assay

| SMILES | MIC (Staphylococcus aureus [1]) [µM] | MIC (Staphylococcus aureus [2]) [µM] | MIC (Staphylococcus aureus [3]) [µM] | MIC (Klebsiella pneumoniae) [µM] | MIC (Pseudomonas aeruginosa) [µM] | MIC (Escherichia coli) [µM] | MIC (Staphylococcus aureus [4]) [µM] | MIC (Staphylococcus aureus [5]) [µM] | MIC [6] [µM] | MIC [7] [µM] | MIC [8] [µM] |
| --- | --- | --- | --- | --- | --- | --- | --- | --- | --- | --- | --- |
| [C-]#[N+]c1ccc(NC(=O)CCc2ccc([N+](=O)[O-])cc2)cc1 | > 8 | 4 | > 8 | ≥ 64 | ≥ 64 | ≥ 64 | 8 | > 8 | 1 | 2 | 2 |
| [C-]#[N+]c1ccc(NC(=O)Cc2ccc([N+](=O)[O-])cc2)cc1 | 8 | 2 | 8 | ≥ 64 | ≥ 64 | ≥ 64 | 4 | 8 | 0.5 | 1 | 0.5 |
| [C-]#[N+]c1ccc(NC(=O)CC2CCCCC2)cc1 | > 8 | > 8 | > 8 | ≥ 64 | ≥ 64 | ≥ 64 | – | – | – | – | – |
| [C-]#[N+]c1ccc(NC(=O)Cc2cccc(OC)c2)cc1 | 8 | 4 | 8 | ≥ 64 | ≥ 64 | ≥ 64 | 8 | 8 | 2 | 2 | 2 |
| [C-]#[N+]c1ccc(NC(=O)Cc2cccc([N+](=O)[O-])c2)cc1 | 8 | 4 | 8 | ≥ 64 | ≥ 64 | ≥ 64 | 4 | 4 | 4 | 4 | 2 |
| [C-]#[N+]c1ccc(NC(=O)Cc2ccc3c(c2)OCO3)cc1 | 8 | 4 | 8 | ≥ 64 | ≥ 64 | ≥ 64 | 8 | 8 | 1 | 1 | 1 |
| N#Cc1ccc(NC(=O)Cc2cccc(Cl)c2)cc1 | > 8 | > 8 | > 8 | ≥ 64 | ≥ 64 | ≥ 64 | – | – | – | – | – |
| [C-]#[N+]c1ccc(NC(=O)CCc2ccccc2)cc1 | 8 | 4 | 8 | ≥ 64 | ≥ 64 | ≥ 64 | 8 | > 8 | 1 | 2 | 2 |
| N#Cc1ccc(NC(=O)Cc2ccccc2)cc1 | > 8 | > 8 | > 8 | ≥ 64 | ≥ 64 | ≥ 64 | – | – | – | – | – |
| [C-]#[N+]c1ccc(NC(=O)CCc2cc(OC)c(OC)c(OC)c2)cc1 | > 8 | > 8 | > 8 | ≥ 64 | ≥ 64 | ≥ 64 | – | – | – | – | – |
| [C-]#[N+]c1ccc(NC(=O)Cc2cccc(C#N)c2)cc1 | 8 | 4 | 8 | ≥ 64 | ≥ 64 | ≥ 64 | 8 | 8 | 2 | 2 | 2 |
| N#Cc1ccc(NC(=O)COc2ccccc2)cc1 | > 8 | > 8 | > 8 | ≥ 64 | ≥ 64 | ≥ 64 | – | – | – | – | – |
| [C-]#[N+]c1ccc(NC(=O)CC(C)C)cc1 | > 8 | > 8 | > 8 | ≥ 64 | ≥ 64 | ≥ 64 | – | – | – | – | – |
| CN(C)[C@@H]1C(O)=C(C(N)=O)C(=O)[C@@]2(O)C(O)=C3C(=O)c4c(O)cccc4[C@@](C)(O)[C@H]3C[C@@H]12 [TETRACYCLINE] | 1.13 | 1.13 | 1.13 | – | – | – | 1.13 | > 4.52 | 4.52 | > 4.52 | 0.27 |
| [C-]#[N+]c1ccc(NC(=O)CCc2ccc(Br)cc2)cc1 | 8 | 8 | 8 | ≥ 64 | ≥ 64 | ≥ 64 | 8 | 8 | 2 | 2 | 2 |
| [C-]#[N+]c1ccc(NC(=O)CCCCC)cc1 | > 8 | 8 | > 8 | ≥ 64 | ≥ 64 | ≥ 64 | > 8 | > 8 | 1 | 1 | 1 |
| [C-]#[N+]c1ccc(NC(=O)Cc2cc(OC)c(OC)c(OC)c2)cc1 | > 8 | > 8 | > 8 | ≥ 64 | ≥ 64 | ≥ 64 | – | – | – | – | – |
| [C-]#[N+]c1ccc(NC(=O)Cc2c(Cl)cccc2Cl)cc1 | > 8 | > 8 | > 8 | ≥ 64 | ≥ 64 | ≥ 64 | – | – | – | – | – |
| [C-]#[N+]c1ccc(NC(=O)Cc2ccc(Cl)cc2)cc1 | 8 | 2 | 8 | ≥ 64 | ≥ 64 | ≥ 64 | 4 | 8 | 0.25 | 0.5 | 0.25 |
| [C-]#[N+]c1ccc(NC(=O)Cc2ccc(OC)cc2)cc1 | 8 | 4 | 8 | ≥ 64 | ≥ 64 | ≥ 64 | 8 | 8 | 2 | 2 | 2 |
| [C-]#[N+]c1ccc(NC(=O)CCCCCCCC)cc1 | 8 | 2 | 8 | ≥ 64 | ≥ 64 | ≥ 64 | 4 | 8 | 0.5 | 1 | 0.5 |
| [C-]#[N+]c1ccc(NC(=O)CCC2CCCC2)cc1 | 8 | 4 | 8 | ≥ 64 | ≥ 64 | ≥ 64 | 8 | 8 | 1 | 1 | 2 |

Now from value to compound, other results behind:

| MIC (Staphylococcus aureus [1]) [µM] | MIC (Staphylococcus aureus [2]) [µM] | MIC (Staphylococcus aureus [3]) [µM] | MIC (Klebsiella pneumoniae) [µM] | MIC (Pseudomonas aeruginosa) [µM] | MIC (Escherichia coli) [µM] | SMILES | MIC (Staphylococcus aureus [4]) [µM] | MIC (Staphylococcus aureus [5]) [µM] | MIC [6] [µM] | MIC [7] [µM] | MIC [8] [µM] |
| --- | --- | --- | --- | --- | --- | --- | --- | --- | --- | --- | --- |
| > 8 | > 8 | > 8 | ≥ 64 | ≥ 64 | ≥ 64 | [C-]#[N+]c1ccc(NC(=O)c2ccc(Br)cc2)cc1 | – | – | – | – | – |
| > 8 | > 8 | > 8 | ≥ 64 | ≥ 64 | ≥ 64 | [C-]#[N+]c1ccc(NC(=O)Cc2ccncc2)cc1 | – | – | – | – | – |
| > 8 | > 8 | > 8 | ≥ 64 | ≥ 64 | ≥ 64 | [C-]#[N+]c1ccc(NC(=O)Cc2ccccc2Cl)cc1 | – | – | – | – | – |
| > 8 | > 8 | > 8 | ≥ 64 | ≥ 64 | ≥ 64 | [C-]#[N+]c1ccc(NC(=O)Cc2ccccc2OC)cc1 | – | – | – | – | – |
| > 8 | > 8 | > 8 | ≥ 64 | ≥ 64 | ≥ 64 | [C-]#[N+]c1ccc(NC(=O)c2ccc(OC)cc2)cc1 | – | – | – | – | – |
| > 8 | > 8 | > 8 | ≥ 64 | ≥ 64 | ≥ 64 | [C-]#[N+]c1ccc(NC(=O)Cc2c[nH]c3ccccc23)cc1 | – | – | – | – | – |
| > 8 | > 8 | > 8 | ≥ 64 | ≥ 64 | ≥ 64 | [C-]#[N+]c1ccc(NC(=O)c2ccc(C(=O)OC)cc2)cc1 | – | – | – | – | – |
| > 8 | > 8 | > 8 | ≥ 64 | ≥ 64 | ≥ 64 | [C-]#[N+]c1ccc(NC(=O)CCc2cccnc2)cc1 | – | – | – | – | – |
| > 8 | > 8 | > 8 | ≥ 64 | ≥ 64 | ≥ 64 | [C-]#[N+]c1ccc(NC(=O)c2ccccc2[N+](=O)[O-])cc1 | – | – | – | – | – |
| > 8 | > 8 | > 8 | ≥ 64 | ≥ 64 | ≥ 64 | [C-]#[N+]c1ccc(NC(=O)Cc2ccccc2[N+](=O)[O-])cc1 | – | – | – | – | – |
| > 8 | > 8 | > 8 | ≥ 64 | ≥ 64 | ≥ 64 | [C-]#[N+]c1ccc(C(=O)Nc2ccccc2)cc1 | – | – | – | – | – |
| > 8 | > 8 | > 8 | ≥ 64 | ≥ 64 | ≥ 64 | [C-]#[N+]c1ccc(NC(=O)c2cccnc2)cc1 | – | – | – | – | – |
| > 8 | > 8 | > 8 | ≥ 64 | ≥ 64 | ≥ 64 | [C-]#[N+]c1ccc(NC(=O)C(=O)c2ccccc2)cc1 | – | – | – | – | – |
| > 8 | > 8 | > 8 | ≥ 64 | ≥ 64 | ≥ 64 | [C-]#[N+]c1ccc(NC(=O)c2ccccc2)cc1 | – | – | – | – | – |
| > 8 | > 8 | > 8 | ≥ 64 | ≥ 64 | ≥ 64 | [C-]#[N+]c1ccc(NC(=O)c2ccccc2C(F)(F)F)cc1 | – | – | – | – | – |
